Measurements from BindingDB's records for doi:10.1021/jm00007a018 (Laboratorios Menarini, 1995).

Biological target: Platelet-activating factor receptor (Oryctolagus cuniculus)
Experiment: […] was measured as the IC50 for aggregation of washed rabbit platelets after incubation for 30 min at 37 C.

Compound | IC50 [µM]
CCCCCCCCCCCC(CCCCCC)CCCCCCOCC(COP(=O)([O-])OCC[N+](C)(C)C)OC (centres undefined) [2-methoxy-3-(7-hexyloctadecyloxy)propyl-2-trimethylammonioethylphosphorate] | > 200
CCCCCCCCCCCC(C)CCCCCCOCC(COP(=O)([O-])OCC[N+](C)(C)C)OC (centres undefined) [2-methoxy-3-(7-methyloctadecyloxy)propyl-2-trimethylammonioethylphosphorate] | > 200
CCCCCCCCC(CCCCCCOCC(COP(=O)([O-])OCC[N+](C)(C)C)OC)c1ccccc1 (centres undefined) [2-methoxy-3-(7-phenylpentadecyloxy)propyl-2-trimethylammonioethylphosphorate] | > 200
COC(COCCCCCCCCCCC(=O)c1ccccc1)COP(=O)([O-])OCC[N+](C)(C)C (centres undefined) [2-methoxy-3-(11-oxo-11-phenylundecyloxy)propyl-2-trimethylammonioethylphosphorate] | > 200
COC(COCCCCCCCCCCC(O)c1ccccc1)COP(=O)([O-])OCC[N+](C)(C)C (centres undefined) [3-(11-hydroxy-11-phenylundecyloxy)-2-methoxypropyl-2-trimethylammonioethylphosphorate] | > 200
CCCCCCCCCCCC(=O)CCCCCCOCC(COCCCCC[N+](C)(C)C)OC (centres undefined) [{5-[2-Methoxy-3-(7-oxo-octadecyloxy)-propoxy]-pentyl}-trimethyl-ammonium; bromide] | > 200

Second part, the molecule after the results:

IC50 [µM] | Compound
> 200 | CCCCCCCCCCCCCCCCC(=O)COCC(COP(=O)([O-])OCC[N+](C)(C)C)OC (centres undefined) [2-methoxy-3-(2-oxooctadecyloxy)propyl-2-trimethylammonioethylphosphorate]
20 | COC(COCCCCCCCCCCCCCCCCc1ccccc1)COP(=O)([O-])OCC[N+](C)(C)C (centres undefined) [2-methoxy-3-(16-phenylhexadecyloxy)propyl-2-trimethylammonioethylphosphorate]
1.5 | CCCCCCC(CCCCCC)CCCCCCCCCCCOCC(COP(=O)([O-])OCC[N+](C)(C)C)OC (centres undefined) [3-(12-hexyloctadecyloxy)-2-methoxypropyl-2-trimethylammonioethylphosphorate]
